Each compound was assayed against T1, CCR1 (Homo sapiens, UniProt P32246) (assay: Method B: calcium flux in CCR1 transfected cells (Calcium 4 dye, […] FDSS6000), block of the CCR1/MIP-1α interaction). Conditions: Method B: Calcium 4 dye, MIP-1alpha at EC80.
T1 sequence (P32246 1-355): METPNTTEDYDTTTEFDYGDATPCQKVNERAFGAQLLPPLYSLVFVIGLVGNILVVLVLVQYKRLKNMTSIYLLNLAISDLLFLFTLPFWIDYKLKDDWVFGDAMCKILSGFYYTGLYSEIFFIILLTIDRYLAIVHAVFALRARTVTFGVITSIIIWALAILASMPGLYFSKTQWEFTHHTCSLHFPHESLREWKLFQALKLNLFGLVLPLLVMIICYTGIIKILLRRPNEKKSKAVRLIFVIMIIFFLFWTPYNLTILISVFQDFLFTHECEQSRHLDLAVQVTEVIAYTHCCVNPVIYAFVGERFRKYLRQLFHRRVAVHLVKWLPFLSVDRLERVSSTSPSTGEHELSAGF
Type: cell-based
Procedure: Compounds are assessed for the ability to block the interaction of CCR1 and MIP-1α in a functional cellular assay measuring calcium flux in CCR1 transfected cells.
Method B: Non-adherent cells purchased from Chemicon Corporation (HTS005C), stably expressing recombinant CCR1 and G-alpha-16 are grown in RPMI 1640 medium (Mediatech 10-080-CM) supplemented with 10% FBS, 0.4 mg/mL Geneticin and penicillin/streptomycin. On the day of the assay, the cells are loaded with Calcium 4 dye (Molecular Devices R7448) with Probenecid (Invitrogen P346400) at 8E5 cells/mL for 1 hour at room temperature. After 1 hour, they are seeded in a 384-well tissue culture-treated plate at a density of 20,000 cells/well. Appropriately diluted test compound is added to the well to achieve a top concentration of 3,000 nM (diluted 4-fold with 10 doses total). The final concentration of DMSO is 1%. The buffer is HBSS (Invitrogen 14025) with 20 mM HEPES at pH 7.4. The cells incubate 30 minutes at 37 C and then 30 minutes at room temperature. The plates are transferred to the […] FDSS6000 where MIP-1alpha in 1% BSA is added at the EC80 final concentration. All plates must be read within 4 hours of the start of dye-loading. Wells+/−MIP-1alpha containing diluted DMSO instead of compound serve as the controls. Data are analyzed using Activity Base software.
`CS(=O)(=O)c1cc(CNC(=O)c2cncc3c2cnn3-c2ccc(F)cc2)cc(Br)n1` [1-(4-Fluorophenyl)-1H-pyrazolo[3,4-c]pyridine-4-carboxylic acid (2-bromo-6-methanesulfonyl-pyridin-4-ylmethyl)-amide] was tested, and the IC50 was 1 nM.
`CC(C)(NC(=O)c1cncc2c1cnn2-c1ccc(F)cc1)c1ccnc(Br)c1` [1-(4-Fluorophenyl)-1H-pyrazolo[3,4-c]pyridine-4-carboxylic acid [1-(2-bromo-pyridin-4-yl)-1-methyl-ethyl]-amide] showed an IC50 of 14 nM.
`CC[C@H](NC(=O)c1cncc2c1cnn2-c1ccc(F)cc1)c1cc(S(C)(=O)=O)cs1` [1-(4-Fluorophenyl)-1H-pyrazolo[3,4-c]pyridine-4-carboxylic acid [(S)-1-(4-methanesulfonyl-thiophen-2-yl)-propyl]-amide] was tested, and the IC50 was 0.1 nM.
Work on `CC[C@H](NC(=O)c1cncc2c1cnn2-c1ccc(F)cc1)c1nc(C(=O)OC)co1` [2-((S)-1-{[1-(4-Fluorophenyl)-1H-pyrazolo[3,4-c]pyridine-4-carbonyl]-amino}-propyl)-oxazole-4-carboxylic acid methyl ester] yielded an IC50 of 38 nM.
`CC(C)(O)CNS(=O)(=O)c1ccc(CNC(=O)c2cncc3c2cnn3-c2ccc(F)cc2)cc1` [1-(4-Fluorophenyl)-1H-pyrazolo[3,4-c]pyridine-4-carboxylic acid 4-(2-hydroxy-2-methyl-propylsulfamoyl)-benzylamide] showed an IC50 of 1 nM.
For `C[C@H](NC(=O)c1cncc2c1cnn2-c1ccc(F)cc1)c1cccc(S(N)(=O)=O)n1` [1-(4-Fluorophenyl)-1H-pyrazolo[3,4-c]pyridine-4-carboxylic acid [(S)-1-(6-sulfamoyl-pyridin-2-yl)-ethyl]-amide], the IC50 was 15 nM.
Work on `CCC(NC(=O)c1cncc2c1cnn2-c1ccc(F)cc1)c1nc(C(N)=O)co1` (centres unmarked) [1-(4-Fluorophenyl)-1H-pyrazolo[3,4-c]pyridine-4-carboxylic acid [1-(4-carbamoyl-oxazol-2-yl)-propyl]-amide] yielded an IC50 of 36 nM.
`CC[C@H](NC(=O)c1cncc2c1cnn2-c1ccc(F)cc1)c1cc(NC(C)C)nc(S(C)(=O)=O)c1` [1-(4-Fluorophenyl)-1H-pyrazolo[3,4-c]pyridine-4-carboxylic acid [(S)-1-(2-isopropylamino-6-methanesulfonyl-pyridin-4-yl)-propyl]-amide] gave an IC50 of 0.2 nM.
Work on `CCOC(=O)CS(=O)(=O)c1cc(CNC(=O)c2cncc3c2cnn3-c2ccc(F)cc2)ccn1` [[4-({[1-(4-Fluorophenyl)-1H-pyrazolo[3,4-c]pyridine-4-carbonyl]-amino}-methyl)-pyridine-2-sulfonyl]-acetic acid ethyl ester] yielded an IC50 of 4 nM.
In the case of `CC[C@H](NC(=O)c1cncc2c1cnn2-c1ccc(F)cc1)c1ccnc(N(C)CCOC)c1` [1-(4-Fluorophenyl)-1H-pyrazolo[3,4-c]pyridine-4-carboxylic acid ((S)-1-{2-[(2-methoxy-ethyl)-methyl-amino]-pyridin-4-yl}-propyl)-amide], the IC50 is reported as 1 nM.
`CC[C@H](NC(=O)c1cncc2c1cnn2-c1ccc(F)cc1)c1cccc(Cl)c1` [1-(4-Fluorophenyl)-1H-pyrazolo[3,4-c]pyridine-4-carboxylic acid [(S)-1-(3-chlorophenyl)-propyl]-amide] was tested, and the IC50 was 0.4 nM.
Work on `CS(=O)(=O)c1cc(CNC(=O)c2cncc3c2cnn3-c2ccc(F)cc2)cc(=O)[nH]1` [1-(4-Fluorophenyl)-1H-pyrazolo[3,4-c]pyridine-4-carboxylic acid (6-methanesulfonyl-2-oxo-1,2-dihydropyridin-4-ylmethyl)-amide] yielded an IC50 of 17 nM.
With `CS(=O)(=O)c1cc([C@H](CCO)NC(=O)c2cncc3c2cnn3-c2ccc(F)cc2)ccn1` [1-(4-Fluorophenyl)-1H-pyrazolo[3,4-c]pyridine-4-carboxylic acid [(S)-3-hydroxy-1-(2-methanesulfonyl-pyridin-4-yl)-propyl]-amide] the IC50 was 12 nM.
Compound `CCC[C@@H](NC(=O)c1cncc2c1cnn2-c1ccc(F)cc1)c1ccc(O)c(S(C)(=O)=O)c1` [1-(4-Fluorophenyl)-1H-pyrazolo[3,4-c]pyridine-4-carboxylic acid [(R)-1-(4-hydroxy-3-methanesulfonyl-phenyl)-butyl]-amide] has an IC50 of 0.2 nM.
`CC[C@H](NC(=O)c1cncc2c1cnn2-c1ccc(F)cc1)c1nc(C(=O)OC)cs1` [2-((S)-1-{[1-(4-Fluorophenyl)-1H-pyrazolo[3,4-c]pyridine-4-carbonyl]-amino}-propyl)-thiazole-4-carboxylic acid methyl ester] gave an IC50 of 5 nM.
`CC[C@H](NC(=O)c1cncc2c1cnn2-c1ccc(F)cc1)c1ccnc(N2CCC(S(C)(=O)=O)CC2)c1` [1-(4-Fluorophenyl)-1H-pyrazolo[3,4-c]pyridine-4-carboxylic acid [(S)-1-(4-methanesulfonyl-3,4,5,6-tetrahydro-2H-[1,2′]bipyridinyl-4′-yl)-propyl]-amide] showed an IC50 of 13 nM.
With `CC[C@H](NC(=O)c1cncc2c1cnn2-c1ccc(F)cc1)c1ccc(S(C)(=O)=O)o1` [1-(4-Fluorophenyl)-1H-pyrazolo[3,4-c]pyridine-4-carboxylic acid [(S)-1-(5-methanesulfonyl-furan-2-yl)-propyl]-amide] the IC50 was 0.4 nM.
Work on `CC[C@H](NC(=O)c1cncc2c1cnn2-c1ccc(F)cc1)c1ccnc(N2CCOCC2)c1` [1-(4-Fluorophenyl)-1H-pyrazolo[3,4-c]pyridine-4-carboxylic acid [(S)-1-(2-morpholin-4-yl-pyridin-4-yl)-propyl]-amide] yielded an IC50 of 0.7 nM.
With `CCC(NC(=O)c1cncc2c1cnn2-c1ccc(F)cc1)c1cnc(N(C)S(C)(=O)=O)nc1` (centres unmarked) [1-(4-Fluorophenyl)-1H-pyrazolo[3,4-c]pyridine-4-carboxylic acid {1-[2-(methanesulfonyl-methyl-amino)-pyrimidin-5-yl]-propyl}-amide] the IC50 was 7 nM.
`CC[C@H](NC(=O)c1cncc2c1cnn2-c1ccc(F)cc1)c1nc(Br)cs1` [1-(4-Fluorophenyl)-1H-pyrazolo[3,4-c]pyridine-4-carboxylic acid [(S)-1-(4-bromo-thiazol-2-yl)-propyl]-amide] was tested, and the IC50 was 0.8 nM.
`CCOC(=O)Cn1ccc([C@H](CC)NC(=O)c2cncc3c2cnn3-c2ccc(F)cc2)n1` [[3-((S)-1-{[1-(4-Fluorophenyl)-1H-pyrazolo[3,4-c]pyridine-4-carbonyl]-amino}-propyl)-pyrazol-1-yl]-acetic acid ethyl ester] was tested, and the IC50 was 11 nM.
`CCC(NC(=O)c1cncc2c1cnn2-c1ccc(F)cc1)c1nc(C(=O)OC)c(C)o1` (centres unmarked) [2-(1-{[1-(4-Fluorophenyl)-1H-pyrazolo[3,4-c]pyridine-4-carbonyl]-amino}-propyl)-5-methyl-oxazole-4-carboxylic acid methyl ester] gave an IC50 of 27 nM.
Compound `CCS(=O)(=O)c1ccc([C@H](C)NC(=O)c2cncc3c2cnn3-c2ccc(F)cc2)cn1` [1-(4-Fluorophenyl)-1H-pyrazolo[3,4-c]pyridine-4-carboxylic acid [(S)-1-(6-ethanesulfonyl-pyridin-3-yl)-ethyl]-amide] has an IC50 of 6 nM.
For `CCC(CC)(NC(=O)c1cncc2c1cnn2-c1ccc(F)cc1)c1ccnc(S(C)(=O)=O)c1` [1-(4-Fluorophenyl)-1H-pyrazolo[3,4-c]pyridine-4-carboxylic acid [1-ethyl-1-(2-methanesulfonyl-pyridin-4-yl)-propyl]-amide], the IC50 was 16 nM.
`O=C(NCc1cc(Br)cs1)c1cncc2c1cnn2-c1ccc(F)cc1` [1-(4-Fluorophenyl)-1H-pyrazolo[3,4-c]pyridine-4-carboxylic acid (4-bromo-thiophen-2-ylmethyl)-amide] gave an IC50 of 7 nM.
In the case of `CC[C@H](NC(=O)c1cncc2c1cnn2-c1ccc(F)cc1)c1cc(N(C)CC(N)=O)nc(S(C)(=O)=O)c1` [1-(4-Fluorophenyl)-1H-pyrazolo[3,4-c]pyridine-4-carboxylic acid {(S)-1-[2-(carbamoylmethyl-methyl-amino)-6-methanesulfonyl-pyridin-4-yl]-propyl}-amide], the IC50 is reported as 0.3 nM.
`CC[C@H](NC(=O)c1cncc2c1cnn2-c1ccc(F)cc1)c1cc(OC)nc(S(C)(=O)=O)c1` [1-(4-Fluorophenyl)-1H-pyrazolo[3,4-c]pyridine-4-carboxylic acid [(S)-1-(2-methanesulfonyl-6-methoxy-pyridin-4-yl)-propyl]-amide] gave an IC50 of 0.1 nM.
Work on `CC[C@H](NC(=O)c1cncc2c1cnn2-c1ccc(F)cc1)c1ccnc(S(=O)(=O)CCC(=O)OC)c1` [3-[4-((S)-1-{[1-(4-Fluorophenyl)-1H-pyrazolo[3,4-c]pyridine-4-carbonyl]-amino}-propyl)-pyridine-2-sulfonyl]-propionic acid methyl ester] yielded an IC50 of 1 nM.
In the case of `CC[C@H](NC(=O)c1cncc2c1cnn2-c1ccc(F)cc1)c1cc(S(C)(=O)=O)[nH]c(=O)c1` [1-(4-Fluorophenyl)-1H-pyrazolo[3,4-c]pyridine-4-carboxylic acid [(S)-1-(6-methanesulfonyl-2-oxo-1,2-dihydropyridin-4-yl)-propyl]-amide], the IC50 is reported as 0.3 nM.

Source: US8063065B2, “Azaindazole compounds as CCR1 receptor antagonists” (Boehringer Ingelheim International GmbH, priority 2008, dated 2011)
